This is an account of results in patent publication US12415781B2, “Compounds with biguanidyl radical and uses thereof” (INSTITUT CURIE, priority 2018, dated 2025).

Structures can show the parent of a compound that is named as a salt.

For data set [1], the system named is MDA-MB-468 cells. Put plainly: Mitochondrial membrane potential (MitoProbe JC-1). In kind it is cell-based, human. The procedure:
Mitochondrial membrane potential. Measurements were performed using the MitoProbe™ JC-1 assay kit (M34152, Thermo Fischer Scientific) according to the manufacturer's protocol. In brief, cells were treated with 2 μM JC-1 or CCCP ([…]) control for the indicated time.

Data set [2] relates to MDA-MB-468 cells. Nature of the data set: Mitochondrial copper(II) levels, turn-off fluorescent probe (microscopy, flow cytometry). In kind it is cell-based, human. Conditions: 48 h, reduction in fluorescence, metformin 12 mM, metforminyn 2 mM unless stated otherwise. As for the experimental part:
FIG. 2. […] Scale bar, 10 μm. […] Scale bar, 10 μm.
(§1) Flow cytometry. Metal-specific probes were synthesized as previously described.
Copper and iron levels. Cells were incubated with the relevant probes as described in Reagents section. Cells were then analyzed either by fluorescence microscopy or flow cytometry as described in Cell Imaging and Flow Cytometry sections.
Background: Flow cytometry measures light scatter and fluorescence of single cells or particles in a stream.

The subject of data set [3] is MDA-MB-468 cells. Put plainly: Mitochondrial morphology. It counts as cell-based, human.
For data set [4], the system named is MDA-MB-468 cells. Nature of the data set: EGF-induced epithelial-to-mesenchymal transition (E-cadherin/phalloidin imaging, Western blot of markers, CD44/CD24 flow cytometry). It counts as cell-based, human. Conditions: 72 h; E-cadherin, phalloidin, fibronectin, vimentin, Zeb1, Snail, Slug, CD44high/CD24low proportion. The procedure: (§2) Cell culture. Dulbecco's Phosphate-Buffered Saline (14190-094, 500 mL, Gibco), Dulbecco's Modified Eagle Medium (DMEM)/F12 (31331-028, 500 mL, Gibco), DMEM GlutaMAX™ (61965059, Thermo Fisher Scientific), Fetal Bovine Serum (FBS, 10270-106, Gibco), Hydrocortisone (H0888, Sigma Aldrich), Insulin (I0516 or I9278, Sigma Aldrich), PEN-STREP (DE17-602E, BioWhittaker, Lonza), Puromycin dihydrochloride (A11138-02, Life Technologies). MCF-7 (ATCC®, HTB-22™), MDA-MB-231 (ATCC®, HTB-26™), MDA-MB-468 (ATCC®, HTB-132™) and circulating tumor cells were grown in DMEM supplemented with 10% FBS and 1% penicillin (100 U/mL), streptomycin (100 μg/mL) and incubated at 37° C. with 5% CO2. To induce EMT, cells were treated with epidermal growth factor EGF (100 ng/ml) (Miltenyi Biotec) for 72 h. The human mammary epithelial cell line infected with a retrovirus carrying hTERT, SV40 and the oncogenic allele HrasV12, named HMLER cells were a generous gift from A. Puisieux. HMLER cells were cultured in DMEM/F12 supplemented with 10% FBS, 10 μg/mL insulin, 0.5 μg/mL hydrocortisone, 10 ng/ml hEGF, and 0.5 μg/mL puromycin. A mycoplasma test was performed using PCR mycoplasma detection kit (G238, Applied Biological Materials).
Western blotting. […] Extracts were incubated at 37° C. for 1 h.
as §1
(In general: In western blotting, separated proteins are transferred to a membrane and probed.)

In data set [5] the test system is MDA-MB-468 cells. Nature of the data set: Mitochondrial ROS levels (MitoSOX Red, flow cytometry). It counts as cell-based, human. The procedure: ROS levels. Mitochondrial ROS was measured using MitoSOX™ Red Mitochondrial Superoxide Indicator (M36008, Thermo Fisher Scientific) according to the manufacturer's protocol.
For data set [6], the system named is triple negative human breast cancer cells and circulating tumor cells (CTC) from patients with colorectal cancer. Nature of the data set: Cell viability (CellTiter-Blue), dose response of cancer cells, FIG. 1B. In kind it is cell-based. Conditions: 72 h, cell line not named. The procedure: (§3) FIG. 1. […] (FIG. 1B) Dose response viability curves of cancer cells treated as indicated for 72 h. […] (FIG. 1D) Dose response viability curves of HMLER cells in epithelial and mesenchymal states treated as indicated for 72 h. Data points and error bars, mean values and s.d. of three independent biological replicates.
as §2
(§4) Cell viability. Cell viability was carried out by plating 1000 cells/well in 96-well plates using CellTiter-Blue® viability assay according to the manufacturer's protocol. Cells were treated as indicated for 72 h. CellTiter-Blue® reagent (G8081, Promega) was added after 72 h treatment and cells were incubated for 1-2 h before recording fluorescence intensities (ex. 560/20 nm; em. 590/10 nm) using a Perkin Elmer Wallac 1420 Victor2 Microplate Reader.
A general note: Alamar Blue is a resazurin reagent that responds to reducing activity.

Data set [7] relates to MDA-MB-468 triple negative breast cancer cells. Nature of the data set: Cell viability (CellTiter-Blue), epithelial and mesenchymal (EGF-induced) states, FIG. 1C. It counts as cell-based, human. As to conditions: MDA-MB-468 epithelial/mesenchymal (EGF) states, condition not named. The procedure: as §3, §2, §4
Data set [8] concerns MDA-MB-468 cells. Put plainly: Cell death (Annexin V-FITC/PI) with cell death inhibitors. In kind it is cell-based, human. As to conditions: Z-VAD-FMK 50 μM, ferrostatin-1 10 μM, necrostatin-1 20 μM, 72 h; not rescued by ferrostatin-1 and necrostatin-1.
Experimental: Cell death. […] Data were analyzed by a LSRFortessaTM flow cytometer (BD Biosciences, San Jose, CA) and processed using Cell Quest (BD Biosciences) and FlowJo (FLOWJO, LLC) software.
A short description of data set [9]: Cyclic voltammetry of a copper(I) solution. As to conditions: metformin 2 mol equiv, quasi-reversible couples.
Experimental: Cyclic voltammetry. Cyclic voltammetry experiments were performed with a three-electrode cell under argon. Saturated Calomel Electrode (SCE) was used as reference, a steady Glassy Carbon (GC) electrode of diameter 3 mm was selected as working electrode and a Platinum wire as counterelectrode. All cyclic voltammograms were recorded at RT with a μ-autolab III from Metrohm using Nova software with a scan rate of 0.5 V/s. MeCN was used as a degassed HPLC grade from Carlo Erba. Water was mQ H2O. Solutions with copper were prepared with 0.3 M nBu4NBF4 (180 mg) in MeCN (1.8 mL) and 200 μl of a 20 mM Cu(MeCN)4PF6 stock solution in MeCN (7.4 mg/mL).
Data set [10] is described as follows: Cyclic voltammetry of iron solutions.

A word on the IC50: it is the concentration that gives 50% inhibition. A high value points to weaker potency in that assay. For `C#CCCN(C)C(=N)NC(=N)N` [metforminyn], in the data set with MDA-MB-468 cells [1], the mitochondrial membrane potential entry was “reduction of mitochondrial membrane potentials”. Also, the “mitochondrial levels of copper(II)” value with MDA-MB-468 cells [2] is listed as “increased levels of copper(II)”. In addition, in the data set on MDA-MB-468 cells [3], the mitochondrial morphology entry is listed as “alteration of mitochondrial morphology”. In the data set on MDA-MB-468 cells [4], the “induction of EMT using EGF” value is “prevented”. Besides, the “mitochondrial reactive oxygen species (ROS) levels” value with MDA-MB-468 cells [5] was “increased levels of reactive oxygen species (ROS)”. In addition, the 50% inhibitory concentration (IC50) in [6] (1st of four values listed 'respectively') is 2.5 mM; in data set [6] (2nd of four values listed 'respectively'), 4.7 mM; in [6] (3rd of four values listed 'respectively'), 2.8 mM; in [6] (4th of four values listed 'respectively'), 3.5 mM; in data set [7] (72 h, 1st of four values listed) it was 12.6 mM; in data set [7] (72 h, 2nd of four values listed), 5.2 mM. Further, the IC50 in [7] (72 h, 3rd of four values listed) was 0.8 mM; in data set [7] (72 h, 4th of four values listed), 0.9 mM. Moreover, the “rescue of compound-induced cell death by inhibitors” value in the data set on MDA-MB-468 cells [8] is reported as “rescued by the caspase 3 inhibitor Z-VAD-FMK”.
On to `CN(C)C(=N)NC(=N)N` [metformin, 1,1-Dimethylbiguanide hydrochloride], for which, in the data set with MDA-MB-468 cells [1], the mitochondrial membrane potential entry is on record as “reduction of mitochondrial membrane potentials”. For the same molecule, in data set [9], the “redox properties of copper (cyclic voltammetry)” value was “altered the redox properties of copper”. Moreover, in the data set on MDA-MB-468 cells [2], the “mitochondrial levels of copper(II)” value is recorded as “increased levels of copper(II)”. Also, the mitochondrial morphology entry with MDA-MB-468 cells [3] was “alteration of mitochondrial morphology”. Also, the “induction of EMT using EGF” value in the data set on MDA-MB-468 cells [4] was “prevented”. Moreover, the “mitochondrial reactive oxygen species (ROS) levels” value in the data set with MDA-MB-468 cells [5] was “increased levels of reactive oxygen species (ROS)”. Moreover, the IC50 in [6] (Homo sapiens, 1st of four values listed 'respectively') is 12.1 mM; in data set [6] (Homo sapiens, 2nd of four values listed 'respectively'), 15.1 mM; in data set [6] (Homo sapiens, 3rd of four values listed 'respectively') it was 7.7 mM; in [6] (Homo sapiens, 4th of four values listed 'respectively') it was 10.9 mM; in data set [7] (Homo sapiens, MDA-MB-468, 72 h, 1st of four values listed), 24.3 mM; in [7] (Homo sapiens, MDA-MB-468, 72 h, 2nd of four values listed), 12.1 mM. Further, the IC50 was determined as 5.5 mM in data set [7] (Homo sapiens, MDA-MB-468, 72 h, 3rd of four values listed) and 2.3 mM in [7] (Homo sapiens, MDA-MB-468, 72 h, 4th of four values listed). Besides, the “rescue of compound-induced cell death by inhibitors” value in the data set on MDA-MB-468 cells [8] is given as “rescued by the caspase 3 inhibitor Z-VAD-FMK”. Moreover, in [10], the “redox properties of iron (cyclic voltammetry)” value is “altered the redox properties of this metal”.
